BindingDB's records for doi:10.3109/14756366.2011.621122 (Ondokuz Mayis University, 2012)

biological target: Carbonic anhydrase 1 (Homo sapiens, UniProt P00915); assay: CA Activity Assay; settings: pH 7.4
Sequence (P00915 whole entry): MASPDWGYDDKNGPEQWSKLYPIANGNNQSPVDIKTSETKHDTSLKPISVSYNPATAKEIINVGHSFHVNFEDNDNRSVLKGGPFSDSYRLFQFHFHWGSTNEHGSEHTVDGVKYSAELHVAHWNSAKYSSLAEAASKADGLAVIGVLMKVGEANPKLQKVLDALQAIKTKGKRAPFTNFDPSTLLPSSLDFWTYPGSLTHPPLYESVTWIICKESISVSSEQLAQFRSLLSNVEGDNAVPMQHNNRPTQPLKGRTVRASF

First: Cc1ccc(S(=O)(=O)Nc2ccccc2)cc1 [CA inhibitor, 2]
Second: Cc1ccc(NS(=O)(=O)c2ccc(C)cc2)cc1 [Carbonic anhydrase inhibitors (CAIs), 1]
The Ki of the first is 4.2-fold higher: 210 µM for the first, 50.1 µM for the second. The second binds more tightly here.

First: Cc1ccc(S(=O)(=O)N2[C@@H]3C=CCC[C@@H]3OC2(C)C)cc1 [Carbonic anhydrase inhibitors (CAIs), 4]
Second: Cc1ccc(S(=O)(=O)N[C@@H]2C=CCC[C@@H]2O)cc1 [Carbonic anhydrase inhibitors (CAIs), 3]
The Ki of the first is 5.4-fold higher: 379 µM for the first, 70.2 µM for the second.

First: Nc1ccc(S(=O)(=O)Nc2ccccn2)cc1 [MLS000069725]
Second: Cc1ccc(S(=O)(=O)N[C@@H]2[C@@H](O)[C@@H](O)CC[C@@H]2O)cc1 [Carbonic anhydrase inhibitors (CAIs), 5]
The Ki of the first is 4.8-fold higher: 26.2 µM for the first, 5.48 µM for the second. The second binds more tightly here.

Going from `Cc1ccc(S(=O)(=O)N[C@@H]2[C@@H](O)[C@H](O)CC[C@@H]2O)cc1` [Carbonic anhydrase inhibitors (CAIs), 6] to `O[C@@H]1CCCC[C@@H]1O` [Carbonic anhydrase inhibitors (CAIs), 7], the Ki rises from 9.34 µM to 21.7 µM (2.3-fold). The first binds more tightly here.

biological target: Carbonic anhydrase 2 (Homo sapiens, UniProt P00918); assay: CA Activity Assay; settings: pH 7.4

Going from `Cc1ccc(S(=O)(=O)Nc2ccccc2)cc1` [CA inhibitor, 2] to `Cc1ccc(NS(=O)(=O)c2ccc(C)cc2)cc1` [Carbonic anhydrase inhibitors (CAIs), 1], the Ki falls from 14.3 µM to 1.03 µM (14-fold). The second binds more tightly here.

Compared with `Cc1ccc(S(=O)(=O)N2[C@@H]3C=CCC[C@@H]3OC2(C)C)cc1` [Carbonic anhydrase inhibitors (CAIs), 4], `Cc1ccc(S(=O)(=O)N[C@@H]2C=CCC[C@@H]2O)cc1` [Carbonic anhydrase inhibitors (CAIs), 3] is 5.8-fold lower in Ki: 21.7 µM for the first, 3.72 µM for the second. The second binds more tightly here.

`Nc1ccc(S(=O)(=O)Nc2ccccn2)cc1` [MLS000069725] and `Cc1ccc(S(=O)(=O)N[C@@H]2[C@@H](O)[C@@H](O)CC[C@@H]2O)cc1` [Carbonic anhydrase inhibitors (CAIs), 5] are within 1.5-fold of each other in Ki: 0.348 µM for the first, 0.47 µM for the second.

Compared with `Cc1ccc(S(=O)(=O)N[C@@H]2[C@@H](O)[C@H](O)CC[C@@H]2O)cc1` [Carbonic anhydrase inhibitors (CAIs), 6], `O[C@@H]1CCCC[C@@H]1O` [Carbonic anhydrase inhibitors (CAIs), 7] is 2.2-fold higher in Ki: 0.82 µM for the first, 1.84 µM for the second. The first binds more tightly here.

biological target: T1, Carbonic anhydrase 3 (Bos taurus, UniProt Q3SZX4); assay: CA Activity Assay; settings: pH 7.4
T1 sequence (Q3SZX4 whole entry): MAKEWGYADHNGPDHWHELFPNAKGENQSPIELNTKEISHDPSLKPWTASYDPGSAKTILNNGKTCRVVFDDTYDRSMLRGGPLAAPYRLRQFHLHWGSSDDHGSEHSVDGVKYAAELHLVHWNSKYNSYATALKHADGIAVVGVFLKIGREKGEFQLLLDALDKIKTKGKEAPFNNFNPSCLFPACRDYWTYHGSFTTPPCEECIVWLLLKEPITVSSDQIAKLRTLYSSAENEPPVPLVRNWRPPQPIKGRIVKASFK

Going from `Cc1ccc(S(=O)(=O)Nc2ccccc2)cc1` [CA inhibitor, 2] to `Cc1ccc(NS(=O)(=O)c2ccc(C)cc2)cc1` [Carbonic anhydrase inhibitors (CAIs), 1], the Ki falls from 13.1 µM to 2.43 µM (5.4-fold). The second binds more tightly here.

Compared with `Cc1ccc(S(=O)(=O)N2[C@@H]3C=CCC[C@@H]3OC2(C)C)cc1` [Carbonic anhydrase inhibitors (CAIs), 4], `Cc1ccc(S(=O)(=O)N[C@@H]2C=CCC[C@@H]2O)cc1` [Carbonic anhydrase inhibitors (CAIs), 3] is 21-fold lower in Ki: 57.4 µM for the first, 2.67 µM for the second.

Compared with `Nc1ccc(S(=O)(=O)Nc2ccccn2)cc1` [MLS000069725], `Cc1ccc(S(=O)(=O)N[C@@H]2[C@@H](O)[C@@H](O)CC[C@@H]2O)cc1` [Carbonic anhydrase inhibitors (CAIs), 5] is 160-fold lower in Ki: 93.2 µM for the first, 0.59 µM for the second. The second binds more tightly here.

`Cc1ccc(S(=O)(=O)N[C@@H]2[C@@H](O)[C@H](O)CC[C@@H]2O)cc1` [Carbonic anhydrase inhibitors (CAIs), 6] and `O[C@@H]1CCCC[C@@H]1O` [Carbonic anhydrase inhibitors (CAIs), 7] are within 1.5-fold of each other in Ki: 1.75 µM for the first, 1.19 µM for the second.

In the case of `O[C@@H]1CCCC[C@H]1O` [(1R,2R)-trans-1,2-cyclohexanediol], the Ki is reported as 4.28 µM.

`Oc1ccccc1` and `Oc1ccccc1O` [1,2-Dihydroxybenzene, XI] are within 1.5-fold of each other in IC50: 4.63 µM for the first, 5.79 µM for the second.

In the case of `c1ccc(-c2cc(OCCCN3CCCC3)nc(-c3ccccc3)n2)cc1`, the IC50 is reported as 66.7 µM.

biological target: Carbonic anhydrase 6 (Homo sapiens, UniProt P23280); assay: CA Activity Assay; settings: pH 7.4
Sequence (P23280 whole entry): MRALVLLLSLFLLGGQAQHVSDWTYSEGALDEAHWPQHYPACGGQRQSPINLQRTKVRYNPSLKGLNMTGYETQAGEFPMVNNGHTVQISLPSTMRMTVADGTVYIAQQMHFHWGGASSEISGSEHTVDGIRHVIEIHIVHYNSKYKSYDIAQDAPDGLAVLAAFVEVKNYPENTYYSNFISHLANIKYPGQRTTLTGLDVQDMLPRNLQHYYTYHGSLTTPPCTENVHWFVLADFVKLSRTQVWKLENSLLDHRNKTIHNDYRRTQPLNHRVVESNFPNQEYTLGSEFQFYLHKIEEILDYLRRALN

Going from `Cc1ccc(S(=O)(=O)Nc2ccccc2)cc1` [CA inhibitor, 2] to `Cc1ccc(NS(=O)(=O)c2ccc(C)cc2)cc1` [Carbonic anhydrase inhibitors (CAIs), 1], the Ki rises from 13.5 µM to 24.3 µM (1.8-fold).

Compared with `Cc1ccc(S(=O)(=O)N2[C@@H]3C=CCC[C@@H]3OC2(C)C)cc1` [Carbonic anhydrase inhibitors (CAIs), 4], `Cc1ccc(S(=O)(=O)N[C@@H]2C=CCC[C@@H]2O)cc1` [Carbonic anhydrase inhibitors (CAIs), 3] is 61-fold lower in Ki: 275 µM for the first, 4.48 µM for the second. The second binds more tightly here.

Going from `Nc1ccc(S(=O)(=O)Nc2ccccn2)cc1` [MLS000069725] to `Cc1ccc(S(=O)(=O)N[C@@H]2[C@@H](O)[C@@H](O)CC[C@@H]2O)cc1` [Carbonic anhydrase inhibitors (CAIs), 5], the Ki falls from 11.7 µM to 1.12 µM (10-fold). The second binds more tightly here.

Going from `Cc1ccc(S(=O)(=O)N[C@@H]2[C@@H](O)[C@H](O)CC[C@@H]2O)cc1` [Carbonic anhydrase inhibitors (CAIs), 6] to `O[C@@H]1CCCC[C@@H]1O` [Carbonic anhydrase inhibitors (CAIs), 7], the Ki rises from 3.78 µM to 16.7 µM (4.4-fold). The first binds more tightly here.
